Assay results: ChEMBL document CHEMBL5678795 (Eur J Pharmacol, 1999)
Calls of active or inactive are those of the source. No cut-off for these calls is given here.

How the values were obtained:
[1] = biological target: Bombesin receptor (Rattus norvegicus) (UniProt P52500+P24053+Q8K418); assay: Displacement of [125I][Tyr4]bombesin from rat brain Bombesin receptor at 10 uM incubated for 60 mins by radiometric based scintillation counter assay relative to control; assay type: tissue-based
[2] = biological target: Cannabinoid receptor 2 (Homo sapiens) (UniProt P34972); assay: Displacement of [3H]WIN 55212-2 from human recombinant cannabinoid CB2 receptor at 10 uM incubated for 120 mins by radiometric based scintillation counter assay relative to control
Chain of Cannabinoid receptor 2 (Homo sapiens) (P34972 whole entry): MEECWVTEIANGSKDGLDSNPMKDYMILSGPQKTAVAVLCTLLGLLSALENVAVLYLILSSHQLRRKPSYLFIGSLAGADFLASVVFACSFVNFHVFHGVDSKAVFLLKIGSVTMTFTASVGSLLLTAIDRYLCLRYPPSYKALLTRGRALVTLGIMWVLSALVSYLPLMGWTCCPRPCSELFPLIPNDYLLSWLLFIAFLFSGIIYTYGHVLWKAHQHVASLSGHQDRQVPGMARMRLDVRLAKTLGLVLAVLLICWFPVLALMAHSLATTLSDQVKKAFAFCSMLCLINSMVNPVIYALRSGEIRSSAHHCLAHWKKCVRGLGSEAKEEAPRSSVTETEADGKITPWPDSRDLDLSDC

[3] = biological target: D(2) dopamine receptor (Homo sapiens) (UniProt P14416); assay: Displacement of [3H]methyl-spiperone from human recombinant dopamine D2 receptor at 10 uM incubated for 60 mins by radiometric based scintillation counter assay relative to control
Chain of D(2) dopamine receptor (Homo sapiens) (P14416 whole entry): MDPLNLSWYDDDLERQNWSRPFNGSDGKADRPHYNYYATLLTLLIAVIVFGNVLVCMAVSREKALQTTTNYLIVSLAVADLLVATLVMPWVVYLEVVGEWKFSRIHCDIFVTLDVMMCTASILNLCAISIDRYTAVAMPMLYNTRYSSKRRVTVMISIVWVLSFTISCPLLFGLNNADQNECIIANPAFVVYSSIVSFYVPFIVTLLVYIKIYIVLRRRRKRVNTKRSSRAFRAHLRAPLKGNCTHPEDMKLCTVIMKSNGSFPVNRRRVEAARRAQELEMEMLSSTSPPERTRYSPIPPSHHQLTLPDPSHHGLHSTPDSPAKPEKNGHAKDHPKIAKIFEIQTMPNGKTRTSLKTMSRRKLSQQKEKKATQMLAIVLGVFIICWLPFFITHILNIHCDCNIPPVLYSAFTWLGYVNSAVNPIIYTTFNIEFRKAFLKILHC

Mus musculus = species: Mus musculus; assay: Displacement of [125I]PDGF BB from mouse platlet-derived growth factor receptor at 10 uM incubated for 180 mins by radiometric based scintillation counter assay relative to control
[4] = biological target: Tumor necrosis factor receptor superfamily member 1A (Homo sapiens) (UniProt P19438); assay: Displacement of [125I]TNF-alpha from human tumor necrosis factor-alpha at 10 uM incubated for 120 mins by radiometric based scintillation counter assay relative to control
Chain of Tumor necrosis factor receptor superfamily member 1A (Homo sapiens) (P19438 whole entry): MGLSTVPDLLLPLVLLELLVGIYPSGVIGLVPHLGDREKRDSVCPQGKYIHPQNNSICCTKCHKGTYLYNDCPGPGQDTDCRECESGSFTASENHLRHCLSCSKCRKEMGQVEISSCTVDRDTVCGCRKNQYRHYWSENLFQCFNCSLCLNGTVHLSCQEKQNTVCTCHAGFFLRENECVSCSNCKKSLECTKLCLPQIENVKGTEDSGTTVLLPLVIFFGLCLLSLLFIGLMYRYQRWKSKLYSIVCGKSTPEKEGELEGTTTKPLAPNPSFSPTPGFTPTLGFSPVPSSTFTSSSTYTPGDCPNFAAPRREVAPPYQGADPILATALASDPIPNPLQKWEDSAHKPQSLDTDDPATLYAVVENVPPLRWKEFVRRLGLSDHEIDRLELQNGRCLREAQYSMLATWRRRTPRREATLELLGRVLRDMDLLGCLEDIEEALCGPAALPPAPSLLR

[5] = biological target: Muscarinic acetylcholine receptor M5 (Homo sapiens) (UniProt P08912); assay: Displacement of [3H]4-DAMP from human recombinant muscarinic M5 receptor at 10 uM incubated for 60 mins by radiometric based scintillation counter assay relative to control
Chain of Muscarinic acetylcholine receptor M5 (Homo sapiens) (P08912 whole entry): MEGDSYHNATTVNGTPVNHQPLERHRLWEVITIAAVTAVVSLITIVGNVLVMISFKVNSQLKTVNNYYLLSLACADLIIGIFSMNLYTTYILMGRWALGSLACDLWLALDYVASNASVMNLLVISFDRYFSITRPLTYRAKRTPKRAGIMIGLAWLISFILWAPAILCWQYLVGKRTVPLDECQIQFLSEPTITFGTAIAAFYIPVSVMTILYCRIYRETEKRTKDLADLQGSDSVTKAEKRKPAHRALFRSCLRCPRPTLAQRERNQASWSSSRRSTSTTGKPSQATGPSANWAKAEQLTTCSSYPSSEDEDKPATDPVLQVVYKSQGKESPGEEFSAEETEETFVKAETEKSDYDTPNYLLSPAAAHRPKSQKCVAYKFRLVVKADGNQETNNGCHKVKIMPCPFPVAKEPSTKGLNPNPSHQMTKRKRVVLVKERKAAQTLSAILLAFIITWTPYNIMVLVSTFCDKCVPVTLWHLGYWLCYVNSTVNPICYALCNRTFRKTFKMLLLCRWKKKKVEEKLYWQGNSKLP

[6] = biological target: Mu-type opioid receptor (Homo sapiens) (UniProt P35372); assay: Displacement of [3H]DAMGO from human recombinant mu-Opioid receptor at 10 uM incubated for 120 mins by radiometric based scintillation counter assay relative to control
Chain of Mu-type opioid receptor (Homo sapiens) (P35372 whole entry): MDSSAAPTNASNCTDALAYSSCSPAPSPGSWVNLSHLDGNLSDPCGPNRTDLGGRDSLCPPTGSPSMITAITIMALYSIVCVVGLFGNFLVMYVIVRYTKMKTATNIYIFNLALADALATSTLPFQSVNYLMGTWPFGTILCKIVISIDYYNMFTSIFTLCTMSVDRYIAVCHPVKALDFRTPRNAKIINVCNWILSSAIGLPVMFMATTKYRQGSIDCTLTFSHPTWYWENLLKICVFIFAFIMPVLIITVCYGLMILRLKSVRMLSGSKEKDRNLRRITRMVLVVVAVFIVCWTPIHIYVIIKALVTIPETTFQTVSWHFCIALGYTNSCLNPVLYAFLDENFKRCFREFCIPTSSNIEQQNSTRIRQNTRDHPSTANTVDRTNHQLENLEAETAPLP

Homo sapiens [7] = species: Homo sapiens; assay: Inhibition of Ca2+ dependent potassium channel (unknown origin) at 10 uM by radioligand binding assay relative to control
Homo sapiens [8] = species: Homo sapiens; assay: Inhibition of Voltage-gated Na+ channel (site 1) (unknown origin) at 10 uM by radioligand binding assay relative to control
Homo sapiens [9] = species: Homo sapiens; assay: Displacement of [35S]TBPS to GABA channel Chloride ionophore binding site (unknown origin) at 10 uM by radioligand binding assay relative to control; details: filed as antagonist
Endothelin-1 receptor = biological target: T1, Endothelin-1 receptor (Rattus norvegicus, UniProt P26684); assay: Antagonist activity at ETA receptor in endothelin-1 stimulated rat MMQ cells assessed as inhibition of phosphatidylinositol hydrolysis in presence of myo-[3H] inositol by anion exchange chromatography; assay type: functional, cell-based
T1 sequence (P26684 whole entry): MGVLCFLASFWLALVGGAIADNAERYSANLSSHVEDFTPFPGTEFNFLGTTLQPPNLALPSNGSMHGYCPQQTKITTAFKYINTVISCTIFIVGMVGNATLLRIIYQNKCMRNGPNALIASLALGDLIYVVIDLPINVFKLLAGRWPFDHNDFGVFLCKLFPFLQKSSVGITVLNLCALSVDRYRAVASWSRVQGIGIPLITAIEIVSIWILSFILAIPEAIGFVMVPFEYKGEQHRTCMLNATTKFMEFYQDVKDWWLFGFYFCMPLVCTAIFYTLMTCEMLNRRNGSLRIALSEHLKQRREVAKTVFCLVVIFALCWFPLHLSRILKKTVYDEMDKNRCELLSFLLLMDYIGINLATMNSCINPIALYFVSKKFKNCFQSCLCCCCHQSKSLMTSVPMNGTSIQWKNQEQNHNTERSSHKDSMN

[10] = biological target: T2, Endothelin-1 receptor (Rattus norvegicus) (UniProt P26684); assay: In vivo antagonist activity to ETA receptor in endothelin-1 induced Sprague-Dawley rat assessed as inhibition of transient depressor response at 100 mg/kg, po administered for 4 hrs; assay type: functional, organism-based
T2 sequence (whole entry): T1 sequence (P26684 whole entry)

Chain of Bombesin receptor (Rattus norvegicus) (P24053 whole entry, looked up): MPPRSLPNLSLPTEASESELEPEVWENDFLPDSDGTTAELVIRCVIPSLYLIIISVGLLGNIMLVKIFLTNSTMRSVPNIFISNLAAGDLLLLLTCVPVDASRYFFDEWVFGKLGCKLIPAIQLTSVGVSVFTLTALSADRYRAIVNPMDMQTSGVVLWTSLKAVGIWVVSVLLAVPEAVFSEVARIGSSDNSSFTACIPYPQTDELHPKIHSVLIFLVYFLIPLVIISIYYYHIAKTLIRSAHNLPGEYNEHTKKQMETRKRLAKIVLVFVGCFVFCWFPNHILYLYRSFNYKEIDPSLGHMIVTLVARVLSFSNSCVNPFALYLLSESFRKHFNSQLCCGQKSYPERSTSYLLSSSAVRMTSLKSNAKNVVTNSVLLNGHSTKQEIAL
Chain of Bombesin receptor (Rattus norvegicus) (P52500 whole entry, looked up): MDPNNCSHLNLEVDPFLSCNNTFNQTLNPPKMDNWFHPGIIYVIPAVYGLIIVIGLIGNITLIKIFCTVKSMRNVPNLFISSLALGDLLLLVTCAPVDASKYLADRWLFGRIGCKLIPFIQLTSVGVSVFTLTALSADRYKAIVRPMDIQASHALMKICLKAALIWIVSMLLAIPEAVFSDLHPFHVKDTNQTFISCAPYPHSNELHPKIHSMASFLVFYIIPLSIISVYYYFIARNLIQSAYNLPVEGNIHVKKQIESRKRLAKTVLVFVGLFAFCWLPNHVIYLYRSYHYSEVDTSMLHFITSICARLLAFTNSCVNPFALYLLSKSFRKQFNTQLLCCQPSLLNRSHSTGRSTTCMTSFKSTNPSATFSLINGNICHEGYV
Chain of Bombesin receptor (Rattus norvegicus) (Q8K418 whole entry, looked up): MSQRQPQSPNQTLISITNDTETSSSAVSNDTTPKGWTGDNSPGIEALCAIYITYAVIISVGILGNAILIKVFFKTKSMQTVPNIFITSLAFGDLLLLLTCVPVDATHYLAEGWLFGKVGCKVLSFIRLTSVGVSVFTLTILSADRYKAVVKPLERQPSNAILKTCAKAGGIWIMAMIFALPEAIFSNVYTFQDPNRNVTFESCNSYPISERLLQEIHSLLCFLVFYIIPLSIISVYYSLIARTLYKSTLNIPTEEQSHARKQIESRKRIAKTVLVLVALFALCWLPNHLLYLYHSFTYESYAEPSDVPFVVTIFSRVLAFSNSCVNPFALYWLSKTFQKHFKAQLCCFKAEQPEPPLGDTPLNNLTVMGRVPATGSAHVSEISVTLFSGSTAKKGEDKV

**Q.** Which results are given for CCCCN(CCCC)C(=O)CN1[C@H](c2cc(OC)c3c(c2)OCO3)C[C@@H](C(=O)O)[C@@H]1CC(C)(C)CCC?
**A.** inhibition [1]: < 10%; inhibition [2]: 11%; inhibition [3]: < 10%; inhibition (Mus musculus): < 10%; inhibition [4]: < 10%; inhibition [5]: < 10%; inhibition [6]: 17%; inhibition (Homo sapiens [7]): < 10%; inhibition (Homo sapiens [8]): 22%; inhibition (Homo sapiens [9]): 61%; IC50 (Endothelin-1 receptor): 0.59 nM; Activity [10]: Active
